In patent US8637681B2, “Pyrrolyl substituted dihydroindol-2-one derivatives, preparation methods and uses thereof” (Qilu Pharmaceutical Co., Ltd., priority 2010, dated 2014):

Experiments:
[1] = system: human colon cancer HT 29 transplanted tumor; experiment: Nude mice transplanted tumor test; format: in vivo, female Balb/cA nude mice; parameters: key to d21 Vave ± SD (average tumor volume): tumor volume TV = ½×a×b² (a, b = major, minor diameter), in mm³; settings: for Dead animal number / inhibition in vivo at 80 mg/kg / d21 Wave ± SD (average bodyweight of nude mice) / d21 Vave ± SD (average tumor volume) / d21 RTV ± SD (relative tumor volume): 80 mg/kg intragastrically each day for 20 days; for Dead animal number: dead/total animals; for inhibition in vivo at 80 mg/kg: Mus musculus, HT-29, po, 504 h, (1−T/C)×100%, read-out: Tumor inhibition rate d21 (%); for inhibition in vivo at 80 mg/kg / d21 Wave ± SD (average bodyweight of nude mice) / d21 Vave ± SD (average tumor volume) / d21 RTV ± SD (relative tumor volume): d21; for d0 Wave ± SD (average bodyweight of nude mice): d0, at grouping before administration (baseline); for d21 Vave ± SD (average tumor volume): HT 29 in nude mice; for d21 RTV ± SD (relative tumor volume): RTV=Vt/V0; for Activity of inhibiting HT-29 transplanted tumor in vivo (in words): 80 mg/kg, compared with positive control Sunitinib
Experimental: The nude mice transplanted tumor test used female Balb/cA nude mice, and tumor strains were human colon cancer HT 29 strains.
Under sterile condition, eugonic tumor tissues stage were cut into pieces of about 1.5 mm^3, and inoculated at right axillary fossa of the nude mice. The transplanted tumor diameter was measured by vernier caliper, and the animals were randomly grouped after the tumors grew to about 120 mm^3. The positive control group and the compounds group in a dosage of 80 mg/kg were administered intragastrically each day for consecutive 20 days. The negative control group was given equivalent amount of injection water containing 0.1% Tween 80. Tumor diameters and the bodyweight of mice were measured 2-3 times every week. The evaluation indexes observed in the test include relative tumor proliferation rate, bodyweight and general states. The formulation for calculating tumor volume (TV) is: TV=½×a×b^2, wherein a, b represent major diameter and minor diameter of tumor; Relative tumor volume (RTV) was calculated according the results of measurement by the following formula: RTV=Vt/V0, wherein V0 is tumor volume measured when dividing groups for administration, and Vt is tumor volume measured after each administration.

[2] = Cytotoxicity test (SRB), Hela; format: cell-based; settings: human, Hela cervical cancer cells
Experimental: Cytotoxicity of the compounds of the present invention was tested with human non-small cell lung cancer cells A549, human cervical cancer Hela cells, human skin cancer cells A431. The test was performed by referring to the method described by Rusnak et al (Rusnak D. W., et al., Cell Prolif., 2007, 40, 580-94). […] Trypsin/ethylenediamine tetraacetic acid (EDTA) were used to harvest cells in cell culture bottle. The cells were added to a 96-well cell culture plate, 4000/well (0.1 ml medium), adhering wall overnight, 0.1 ml of the diluted solution of the compounds to be tested was added, the final concentration of DMSO was 0.25%. The cell culture plate was incubated at 37° C., 5% CO2 conditions for 72 h. […] The absorption at a wavelength of 540 nm was measured. The IC50 (μM) of the compound was calculated using Logit method.

[3] = system: arterial ring angiogenesis in rats; experiment: Inhibitory actions on arterial ring angiogenesis in rats; format: cell-based; settings: Rattus norvegicus, area covered by micrangiums vs control well, read-out: Inhibitory rate (%); for inhibition at 0.2 µg/mL: 0.2 μg/ml; for inhibition at 1 µg/mL: 1 μg/ml; for inhibition at 5 µg/mL: 5 μg/ml
Experimental: This experiment was conducted by referring to the method described by R. F. Nicosia et al (Nicosia, R. F., et al. Am J Pathol., 1997, 151, 1379-1386). Rats were executed by cervical dislocation. The thoracic aorta was carefully separated, and placed in a container with physiological saline. The excess tissues were carefully cut off. The blood vessels were cut with a pair of ophthalmic scissors to form 1 mm thick vascular ring slices. To a pre-cooled 96-well cell culture plate, one separated vascular ring was placed in the center of each well. 70 μl of pre-molten Matrigel was carefully added to cover the vascular ring, which was incubated at 37° C. for 1 h so as to solidify it. […] The sample was placed in incubator for conventional culture, and each compound was tested at least in two repeated wells, and each test was repeated twice. […] The fresh culture medium was replaced every 3 days, and the drug was changed at the same time. The survival status of vascular rings was observed under microscope, and pictures were taken at the same time. Image Pro Plus software was used to calculate the area covered by micrangiums. The average inhibition rate was calculated by using the formula: inhibition rate (%)=(area of control well−area of drug well)/area of control well×100%.

[4] = Cytotoxicity test (SRB), A549; format: cell-based; settings: human, A549 non-small cell lung cancer cells
Experimental: (§1) Cytotoxicity of the compounds of the present invention was tested with human non-small cell lung cancer cells A549, human cervical cancer Hela cells, human skin cancer cells A431. The test was performed by referring to the method described by Rusnak et al (Rusnak D. W., et al., Cell Prolif., 2007, 40, 580-94).
(§2) In Dulbecco's Modified Eagle Medium (DMEM) comprising 10% fetal bovine serum, 2 mM glutamine and non-essential amino acids, cells were cultured at 37° C. in 5% CO2 cell incubator. Trypsin/ethylenediamine tetraacetic acid (EDTA) were used to harvest cells in cell culture bottle. The cells were added to a 96-well cell culture plate, 4000/well (0.1 ml medium), adhering wall overnight, 0.1 ml of the diluted solution of the compounds to be tested was added, the final concentration of DMSO was 0.25%. The cell culture plate was incubated at 37° C., 5% CO2 conditions for 72 h. The change of cellular morphology was observed under microscope, and then 50 μl of 50% (mass/volume) trichloroacetic acid (TCA) was added to each well to fix cells. The final concentration of TCA was 10%. It stood for 5 min, than was placed in 4° C. refrigerator for 1 h, the wells of the culture plate were washed with deionized water for 5 times to remove TCA, drained, dried in air until no wet trace was observed. 100 μl of 0.4% (mass/volume) SRB was added to each well, stood at room temperature for 10 min. The liquid in each well was discarded, and then the wells were washed with 1% acetic acid for 5 times, dried in air, extracted with 150 μl of 10 mM Tris base (trihydroxymethylaminomethane, pH 10.5). The absorption at a wavelength of 540 nm was measured. The IC50 (μM) of the compound was calculated using Logit method.

[5] = Cytotoxicity test (SRB), A431; format: cell-based; settings: human, A431 skin cancer cells
Experimental: as §1, §2

Compound	Dead animal number [1]	inhibition in vivo at 80 mg/kg [1] [%]	d0 Wave ± SD (average bodyweight of nude mice) [1]	d21 Wave ± SD (average bodyweight of nude mice) [1]	d21 Vave ± SD (average tumor volume) ([1]; in mm³ (unit assumed))	d21 RTV ± SD (relative tumor volume) [1]	IC50 at 72 h [2] [µM]	inhibition at 0.2 µg/mL [3] [%]	inhibition at 1 µg/mL [3] [%]	inhibition at 5 µg/mL [3] [%]	IC50 at 72 h [4] [µM]	IC50 at 72 h [5] [µM]	Activity of inhibiting HT-29 transplanted tumor in vivo (in words) [1]	d21 Vave ± SD (average tumor volume) [1]
CCN(CC)CCC(=O)Nc1c(C)[nH]c(/C=C2\C(=O)Nc3ccc(NS(C)(=O)=O)cc32)c1C [Compound 8, N-{5-[5-methylsulfonylamino-2-oxo-1,2-dihydro-indol-(3Z)-ylidenemethyl]-2,4-dimethyl-1H-pyrrol-3-yl}-3-(N,N-diethylamino)propionamide]	0/6	78.9	19.2 ± 0.32	17.8 ± 0.65	186.0 ± 53.1	1.52 ± 0.56	> 30	94	100	100	> 30	> 30	–	–
CCN1CCN(CCC(=O)Nc2c(C)[nH]c(/C=C3\C(=O)Nc4ccc(F)cc43)c2C)CC1 [Compound 10, N-{5-[5-fluoro-2-oxo-1,2-dihydro-indol-(3Z)-ylidenemethyl]-2,4-dimethyl-1H-pyrrol-3-yl}-3-(4-ethylpiperazin-1-yl)propionamide]	0/6	86.4	18.7 ± 1.10	18.9 ± 0.97	112.8 ± 36.4	0.98 ± 0.34	> 30	98	100	100	> 30	> 30	inhibitory activity comparable to the positive control Sunitinib	–
Cc1[nH]c(/C=C2\C(=O)Nc3ccc(F)cc32)c(C)c1NC(=O)CCN1CCN(C)CC1 [Compound 11, N-{5-[5-fluoro-2-oxo-1,2-dihydro-indol-(3Z)-ylidenemethyl]-2,4-dimethyl-1H-pyrrol-3-yl}-3-(4-methylpiperazin-1-yl)propionamide]	0/6	88.5	18.5 ± 0.55	20.5 ± 0.49	96.7 ± 35.4	0.83 ± 0.52	> 30	99	100	100	> 30	> 30	inhibitory activity comparable to the positive control Sunitinib	–
Cc1[nH]c(/C=C2\C(=O)Nc3ccc(F)cc32)c(C)c1NC(=O)CN1CCCCC1 [Compound 16, N-{5-[5-fluoro-2-oxo-1,2-dihydro-indol-(3Z)-ylidenemethyl]-2,4-dimethyl-1H-pyrrol-3-yl}-2-(piperidin-1-yl)acetamide]	0/6	68.7	19.5 ± 0.46	18.5 ± 0.59	268.4 ± 33.8	2.25 ± 0.37	> 30	91	100	100	> 30	6.25	–	–
Cc1[nH]c(/C=C2\C(=O)Nc3ccc(F)cc32)c(C)c1NC(=O)CN1CCCC1 [Compound 17, N-{5-[5-fluoro-2-oxo-1,2-dihydro-indol-(3Z)-ylidenemethyl]-2,4-dimethyl-1H-pyrrol-3-yl}-2-(tetrahydropyrrol-1-yl)acetamide]	0/6	63.5	18.9 ± 0.58	19.2 ± 0.82	–	2.63 ± 0.53	> 30	89	100	100	> 30	> 30	–	324.5 ± 39.4
CCN1CCN(CC(=O)Nc2c(C)[nH]c(/C=C3\C(=O)Nc4ccc(F)cc43)c2C)CC1 [Compound 18, N-{5-[5-fluoro-2-oxo-1,2-dihydro-indol-(3Z)-ylidenemethyl]-2,4-dimethyl-1H-pyrrol-3-yl}-2-(4-ethylpiperazin-1-yl)acetamide]	0/6	90.1	19.1 ± 0.48	18.9 ± 0.69	86.2 ± 45.3	0.73 ± 0.45	4.15	99	100	100	> 30	> 30	–	–
CCN(CC)CC(=O)Nc1c(C)[nH]c(/C=C2\C(=O)Nc3ccc(Cl)cc32)c1C [Compound 21, N-{5-[5-chloro-2-oxo-1,2-dihydro-indol-(3Z)-ylidenemethyl]-2,4-dimethyl-1H-pyrrol-3-yl}-2-(N,N-diethylamino)acetamide]	0/6	89	18.9 ± 0.47	19.3 ± 0.76	94.3 ± 37.2	0.79 ± 0.63	> 30	95	100	100	> 30	> 30	inhibitory activity comparable to the positive control Sunitinib	–
